Data taken from US9943599B2, “Therapeutic applications of calcium electroporation to effectively induce tumor necrosis” (Herlev Hospital, priority 2011, dated 2018).

How the values were obtained:
[1] = system: H69 (human small cell lung cancer) tumors; assay: Histology, fraction of necrosis in H69 tumors; assay type: in vivo, NMRI-Foxn1^nu mice
Experimental: At an average tumor size of 6.1 mm (range 5.8-6.6 mm) in largest diameter, the tumors are treated with 168 mM CaCl2 injection and electroporation as described in Example 3. Tumors are removed at skin level before treatment, 2 hours, 1, 2 and 6 days after treatment, fixated in formalin (10% neutrally buffered) and paraffin embedded. Subsequently, tissue sections with a thickness of 3 μm are HE-stained according to the routine procedure of the department. The fraction of necrosis within the tumor is estimated from HE-sections by stereological point counting using a light microscope, evaluated by a pathologist, blinded with respect to treatment status.
The difference in fraction of necrosis is assessed using one-way ANOVA with post least-squares-means test with Bonferroni correction for multiple comparisons.

[2] = system: B16 (murine melanoma) tumors; assay: Fraction of necrosis after calcium electroporation, B16 tumors; assay type: in vivo, NMRI-Foxn1^nu mice; conditions: 168 mM CaCl2, half tumor volume, first days after treatment
Experimental: (§1) LPB, a murine sarcoma cell line, B16, a murine malignant melanoma cell line, MDA-MB231, human a breast cancer cell line, HT29, a human colon cancer cell line, and SW780, a human bladder cancer cell line were used for the in vivo experiment. The cells were tested by rapid MAP27 panel (Taconic, Hudson N.Y.) before use without signs of infection. 2×10^5 cells (B16), 8×10^5 cells (LPB), 2.5×10^6 cells (MDA-MB231), and 5×10^6 cells (HT29 and SW780) in 100 μl PBS were injected subcutaneously in the flank of NMRI-Foxn1^nu mice (Harlan, Indianapolis, Ind.) that were 9-11 weeks old. Mice were randomised at a tumor volume above 85 mm^3 and tumors were treated with injection of isotonic calcium-chloride solution (168 mM CaCI2) and electroporation (8 pulses of 1.0 kv/cm for 100 μs and a frequency of 1 Hz) using a 6 mm plate electrode and a square wave electroporator (CLINIPORATOR®, IGEA, Modena, Italy). Tumor volume was calculated as ab^2n/6, where a is the largest diameter and b is the largest diameter perpendicular to a. The injected volume was half of the tumor volume. […] The fraction of necrosis within the tumor was estimated from HE-sections by stereological point counting using a light microscope, evaluated by a pathologist, blinded with respect to treatment status.
(§2) The difference in fraction of necrosis at different time after treatment was assessed using student's t-test.

[3] = system: MDA-MB231 (human breast cancer) tumors; assay: Fraction of necrosis after calcium electroporation, MDA-MB231 tumors; assay type: in vivo, NMRI-Foxn1^nu mice
Experimental: as §1, §2

[4] = system: muscle below MDA-MB231 tumor; assay: Normal tissue reaction, muscle below the tumor; assay type: in vivo, NMRI-Foxn1nu mice; conditions: for fraction of necrosis in muscle tissue: with electroporation, 7 days
Experimental: MDA-MB231, a human breast cancer cell line was used for the in vivo experiments. The cells were tested by rapid MAP27 panel (Taconic, Hudson N.Y.) before use without signs of infection. Cells were maintained in vitro as described in Example 1. 2.5×10^6 cells/100 μl PBS were injected subcutaneously in the flank of NMRI-Foxn1nu mice (Harlan, Indianapolis, Ind.). Tumor pieces were transplanted twice from donor mice to the flank of nude mice that were 13-19 weeks old. HYPNORM™-DORMICUM™ (fentanyl/fluanisone/midazolam; VetaPharma, Leeds, U K and Roche, Basel, Switzerland) was used for anesthesia complemented with RIMADYL® (Carprofen) (Pfizer ApS, Ballerup, Denmark) as well as lidocaine (Region Hovedstadens Apotek, Herlev, Denmark) in the incision. Mice were randomised at a tumor volume above 85 mm^3 and tumors were treated with 1) injection of calcium-chloride solution and electroporation (8 pulses of 1.0 kV/cm for 100 μs and a frequency of 1 Hz) using a 6 mm plate electrode and a square wave electroporator (CLINIPORATOR®, IGEA, Modena, Italy), 2) calcium-free physiological saline injection and electroporation (same parameters as above), 3) injection of calcium-chloride, 4) calcium-free physiological saline injection, or 5) untreated but with needle inserted in the tumor without injection and with electrodes put on the tumor without pulses applied. […] Tumor volume was calculated as ab2n/6, where “a” is the largest diameter and “b” is the largest diameter perpendicular to “a”. […] Estimation of normal tissue damages was evaluated semiquantitatively on HE-sections by light[ ]microscopy (LEICA® DM 2000 light microscope, Leica Microsystems, Wetzlar, Germany).
The presence of necrosis in the muscle samples were scored by counting numbers of necrotic myocytes per 10 HPF (400× magnification). Necrosis was only recorded if the myocytes had lost the nucleus. Increased eosinofilic intensity in the myocyte cytoplasm with a retained nucleus was not recorded as a necrotic fiber. […]

[5] = system: H69 (human small cell lung cancer) tumors; assay: Tumor volume and fluorescence intensity of H69 tumors on nude mice; conditions: for necrosis of skin / healthy tissue around the tumor: injected volume equivalent to the tumor volume (1 to 1 ratio)
[6] = 168 mM CaCl2 with electroporation

[Ca+2].[Cl-].[Cl-] [calcium chloride]
fraction of necrosis in tumors, course ([1]; 168 mM CaCl2 with electroporation, 2 hours to 6 days): progressive necrosis
fraction of necrosis in tumors ([1]; 6 days post treatment): complete
fraction of necrosis in tumors, course [2]: progressive necrosis
fraction of necrosis in tumors, course ([3]; 168 mM CaCl2, half tumor volume, electroporation, first days after treatment): progressive necrosis
tumor re-growth ([3]; 6 days after the treatment): re-growth
fraction of muscle tissue affected ([4]; after calcium electroporation of the tumor above the muscle): only a minor fraction
fraction of necrosis in muscle tissue ([4]; at increasing calcium concentrations): increase in the fraction of necrosis
fraction of necrosis in muscle tissue ([4]; at increasing injection volumes): slight increase in the fraction of necrosis
treated tumors eliminated ([5]; 168 mM CaCl2 intratumoral with electroporation (8 pulses 1.0 kV/cm, 100 μs, 1 Hz), 8/9): 89%
healing of ulceration, average [5, 6]: 18 days
healing of ulceration, range [5, 6]: 9 to 24 days
ulceration of treated tumors [5, 6]: occurs in all
fluorescence intensity of tumors ([5]; 168 mM CaCl2 with electroporation, stays at background levels): decrease drastically
necrosis of skin / healthy tissue around the tumor ([5]; with electroporation, listed as Ca^2+-EP): skin necrosis
necrosis of skin / healthy tissue around the tumor ([5]; with electroporation, listed as calcium solution): necrotic effect on the healthy tissues surrounding the neoplasm
necrosis of surrounding tissue ([5]; injected volume ratio 0.5 of tumor volume, with electroporation): without creating necrosis in the surrounding tissue
tumor volume doubling time ([5]; isotonic calcium-chloride without electroporation): 6.3 days
